Assays:
Type in all cases: physicochemical
[1] = Storage stability of SNAP in VASELINE® (UV-Vis % Recovery); conditions: room temperature
Protocol: The stability of 5 wt % and 10 wt % SNAP in petroleum jelly was tested. The petroleum jelly used was VASELINE®.
Mixtures of 5 wt % SNAP powder or 10 wt % SNAP powder in VASELINE® were mixed until homogeneity was achieved. Each homogeneous mixture was spread out on a weigh boat and dried under vacuum and desiccant for 24 hours. Afterwards, individual samples were weighed out into individual amber glass vials. Each sample's mass was recorded to obtain the theoretical amount of SNAP in each sample. Septum caps were used to allow purging of each sample with nitrogen gas for storage. All caps were then wrapped in parafilm, and then each vial was wrapped in aluminum foil to ensure that the samples are not exposed to light. All samples were stored in the dark at room temperature (˜25° C. in this example).
To quantify the amount of SNAP in each VASELINE® sample, UV-Vis was used. After recording the absorption of a sample, Beer's law (A=εbc, where A=absorption, ε=922 M^−1 cm^−1, b=1 cm, and c=concentration) was used to calculate the concentration of SNAP. These measurements were made at different times over several months.
When a stored SNAP/VASELINE® sample was going to be analyzed, it was opened and 40 mg of the sample was retrieved. […] The SNAP solution was diluted 1:10 twice, and used to obtain UV-Vis absorbance values between 0.2 and 2 AU (absorbance units) at […]. […]

[2] = NO release from 1 mM GSNO bulk solution after addition of metal ions (chemiluminescence analyzer); conditions: 100 μL of 1 mM salt into 2 mL of 1 mM GSNO, 10 mM Tris-HCl pH 7.4, dark, 24° C.
Protocol: Another experiment was performed to determine whether zinc ions can increase NO proliferation from GSNO in the dark at 24° C. NO release was measured using a nitric oxide (chemiluminescence) analyzer. Throughout the analysis, each solution was bubbled with N2 gas at a rate of 50 mL/min. Any generated NO was carried into the analyzer by a N2 sweep gas. All of the solutions were made with 10 mM Tris-HCl buffer (pH 7.4). A bulk solution was prepared including 1 mM GSNO in the buffer. 2 mL of this bulk solution were added to a sample cell and the analyzer was allowed to equilibrate for 1 minute. At t=1 minute, 100 μL of 1 mM zinc chloride (ZnCl2) was added to the bulk solution. […] For the control, 100 μL of the buffer (10 mM Tris-HCl, pH 7.4) was added into the bulk solution at t=1 minute. The same insignificant burst was observed. For each scenario, at t=10.5 minutes, 100 μL of 1 mM CuCl2 was added to the bulk as a positive control.

[3] = Storage stability of GSNO in VASELINE® (UV-Vis % Recovery); conditions: room temperature (18° C. to about 25° C.)
Protocol: The stability of 10 wt % GSNO in petroleum jelly was tested. The petroleum jelly used was VASELINE®.
A mixture 10 wt % GSNO in VASELINE® was mixed until homogeneity was achieved. The homogeneous mixture was spread out on a weigh boat and dried under vacuum and desiccant for 24 hours. Afterwards, individual samples were weighed out into individual amber glass vials. Each sample's mass, ranging from 15-40 mg per sample, was recorded to obtain the theoretical amount of GSNO in each sample. Septum caps were used to allow purging of each sample with nitrogen gas for storage. Each sample was purged under nitrogen gas for 5 hours. […]
To quantify the amount of GSNO in each VASELINE® sample, ultraviolet-visible spectroscopy (UV-Vis) was used. […]
When a stored GSNO/VASELINE® sample was going to be analyzed, it was opened, subjected to 5 mL of xylene, vortexed for 30 seconds, and stirred for 10 minutes. […] An aliquot of the aqueous layer was taken and the absorbance spectrum was captured from 200-600 nm using UV-Vis to quantitate the level of GSNO present in the GSNO/VASELINE® sample. […]
UV-Vis spectroscopy was used to determine the stability of GSNO in VASELINE®. […] After sample prep, the aliquot of the aqueous layer was taken in an appropriate volume so that the absorbance measured would be <1 at 334 nm. The sample was further diluted if necessary to achieve an absorbance of <1. […]

## CC(=O)N[C@@H](C(=O)O)C(C)(C)SN=O (racemic) [SNAP, S-nitroso-n-acetylpenicillamine]
[1]; higher amounts of SNAP (10 wt % SNAP)
  period for which petroleum jelly is a stable carrier: at least 2 months
[1]; lower amounts of SNAP (5 wt % SNAP)
  period for which petroleum jelly is a stable carrier: at least 6 months

## [Cl][Cu][Cl] [CuCl2]
[2]
  NO release on addition to GSNO bulk solution (in words): large burst in NO release

## N[C@@H](CCC(=O)N[C@@H](CSN=O)C(=O)NCC(=O)O)C(=O)O [GSNO, S-nitrosoglutathione]
[3]
  period for which petroleum jelly is a stable carrier: at least 300 days

## [Cl-].[Cl-].[Zn+2] [ZnCl2, zinc chloride]
[2]
  NO release on addition to GSNO bulk solution (in words): small, insignificant burst of NO
